Experimental data taken from ChEMBL document CHEMBL1201862, “PubChem BioAssay data set” (2004).
Calls of active or inactive are those of the source.

Assays:
[1] = molecular target: T1, Calpain-2 catalytic subunit (Sus scrofa, UniProt P43367); assay: m-calpain protease blockers, concentration series – biochemical, fluorogenic peptide substrate, dose response (AID 1420); type: functional
T1 sequence (P43367 whole entry): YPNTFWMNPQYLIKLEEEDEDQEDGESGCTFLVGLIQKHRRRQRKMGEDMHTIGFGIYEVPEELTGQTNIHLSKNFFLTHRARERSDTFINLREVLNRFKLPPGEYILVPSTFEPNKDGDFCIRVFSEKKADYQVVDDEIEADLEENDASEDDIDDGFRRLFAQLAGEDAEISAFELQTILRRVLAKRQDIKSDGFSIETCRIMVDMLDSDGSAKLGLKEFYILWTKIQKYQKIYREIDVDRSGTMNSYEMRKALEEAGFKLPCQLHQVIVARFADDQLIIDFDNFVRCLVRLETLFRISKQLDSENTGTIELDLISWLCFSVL

[2] = DRD fibroblast viability loss – cell-based, non-viral oncogenic, luminescence, dose response (AID 1934); type: functional; settings: Homo sapiens
[3] = system: BJ; assay: BJ-TERT fibroblast viability loss – cell-based, RAS-independent, luminescence, dose response (AID 1933); type: functional; settings: Homo sapiens
[4] = system: BJ; assay: BJ-TERT-LT-ST fibroblast viability loss – cell-based, RAS-independent, luminescence, dose response (AID 1935); type: functional; settings: Homo sapiens;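 also: BJ fibroblasts immortalized with TERT plus LT and ST oncogenes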
[5] = system: BJ; assay: cells; type: functional, cell-based; settings: Homo sapiens
[6] = molecular target: FAD-linked sulfhydryl oxidase ALR (Homo sapiens, UniProt P55789); assay: ALR-catalysed DTT oxidation blockers – biochemical, H2O2 detection, luminescence, cherry-pick, dose response (AID 493248)
Chain of FAD-linked sulfhydryl oxidase ALR (P55789 whole entry): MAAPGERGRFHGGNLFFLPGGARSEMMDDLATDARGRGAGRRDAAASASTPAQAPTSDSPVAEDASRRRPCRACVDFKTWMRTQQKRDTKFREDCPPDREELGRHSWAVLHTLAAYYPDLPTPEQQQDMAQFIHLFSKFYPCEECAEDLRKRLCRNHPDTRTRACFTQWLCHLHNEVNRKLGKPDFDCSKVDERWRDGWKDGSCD

[7] = viability of uninfected HEp-2 cells – cell-based, HTS, cytotoxicity control for RSV inhibitor project, dose response (AID 2410); type: functional; settings: human respiratory syncytial virus
[8] = molecular target: T2, Rac GTPase-activating protein 1 (Homo sapiens, UniProt Q9H0H5); assay: blockers of MgcRacGAP-driven Rac1 GTP hydrolysis – biochemical, ADP Hunter fluorescence, primary and confirmatory, confirmation (AID 624330); type: functional
T2 sequence (Q9H0H5 whole entry): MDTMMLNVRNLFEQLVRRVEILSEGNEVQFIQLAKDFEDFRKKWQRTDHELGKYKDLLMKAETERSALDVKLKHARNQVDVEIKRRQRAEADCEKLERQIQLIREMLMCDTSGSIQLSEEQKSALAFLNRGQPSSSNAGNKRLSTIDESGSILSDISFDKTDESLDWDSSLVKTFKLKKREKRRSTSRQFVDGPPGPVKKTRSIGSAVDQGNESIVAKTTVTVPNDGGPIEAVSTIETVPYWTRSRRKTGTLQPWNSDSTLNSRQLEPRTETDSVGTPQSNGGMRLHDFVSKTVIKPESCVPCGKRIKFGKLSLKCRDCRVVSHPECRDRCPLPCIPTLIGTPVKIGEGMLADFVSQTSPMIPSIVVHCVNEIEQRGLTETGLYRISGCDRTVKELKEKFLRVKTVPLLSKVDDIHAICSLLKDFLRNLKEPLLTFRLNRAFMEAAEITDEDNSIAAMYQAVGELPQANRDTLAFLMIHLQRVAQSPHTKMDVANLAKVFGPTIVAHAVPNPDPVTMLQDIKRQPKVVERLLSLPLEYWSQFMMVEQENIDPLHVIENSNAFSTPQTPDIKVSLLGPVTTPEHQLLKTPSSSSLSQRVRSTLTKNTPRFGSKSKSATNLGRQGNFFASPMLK

[9] = Luminescence Cell-Based Dose Response HTS to Identify Activators of Luciferase Translation or Activity in H4 […] Cells. [Related pubchem assays: 1829 (Project Summary), 1814 (Primary HTS)]; type: functional
[10] = system: H4; assay: Luminescence Cell-Based Dose Response HTS to Identify Activators of 5'UTR Stem-Loop Driven Prion Protein mRNA Translation in H4 Neuroglioblastoma Cells. [Related pubchem assays: 1829 (Project Summary), 1814 (Primary HTS)]; type: functional; settings: Homo sapiens
[11] = reduction of Shn3 3'UTR-driven luciferase in osteoblasts – cell-based, Clone20 osteoblasts, firefly luciferase, cherry-picked, dose response (AID 624132); type: functional;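 also: firefly luciferase luminescence from reporter carrying the Shn3 3'UTR in osteoblasts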
[12] = loss of viability in HepG2 cells – cell-based, CellTiter-Glo, cherry-picked, cytotoxicity control for Shn3 inhibitor project, dose response (AID 624134); type: functional
[13] = non-specific 3'UTR reporter inhibition in Clone20-Shn3RL – cell-based, Renilla luciferase, cherry-picked, counter-screen for Shn3 inhibitor project, dose response (AID 624133); type: functional
[14] = molecular target: T3, Fatty acid synthase (Homo sapiens, UniProt P49327); assay: inhibition of human FAS-TE enzyme activity – biochemical, endpoint fluorescence intensity, uHTS hits, dose response (AID 624327); type: functional;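 also: fluorescence from hydrolysis of an O-methyl fluorescein acyl ester substrate by the enzyme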
T3 sequence (P49327 whole entry): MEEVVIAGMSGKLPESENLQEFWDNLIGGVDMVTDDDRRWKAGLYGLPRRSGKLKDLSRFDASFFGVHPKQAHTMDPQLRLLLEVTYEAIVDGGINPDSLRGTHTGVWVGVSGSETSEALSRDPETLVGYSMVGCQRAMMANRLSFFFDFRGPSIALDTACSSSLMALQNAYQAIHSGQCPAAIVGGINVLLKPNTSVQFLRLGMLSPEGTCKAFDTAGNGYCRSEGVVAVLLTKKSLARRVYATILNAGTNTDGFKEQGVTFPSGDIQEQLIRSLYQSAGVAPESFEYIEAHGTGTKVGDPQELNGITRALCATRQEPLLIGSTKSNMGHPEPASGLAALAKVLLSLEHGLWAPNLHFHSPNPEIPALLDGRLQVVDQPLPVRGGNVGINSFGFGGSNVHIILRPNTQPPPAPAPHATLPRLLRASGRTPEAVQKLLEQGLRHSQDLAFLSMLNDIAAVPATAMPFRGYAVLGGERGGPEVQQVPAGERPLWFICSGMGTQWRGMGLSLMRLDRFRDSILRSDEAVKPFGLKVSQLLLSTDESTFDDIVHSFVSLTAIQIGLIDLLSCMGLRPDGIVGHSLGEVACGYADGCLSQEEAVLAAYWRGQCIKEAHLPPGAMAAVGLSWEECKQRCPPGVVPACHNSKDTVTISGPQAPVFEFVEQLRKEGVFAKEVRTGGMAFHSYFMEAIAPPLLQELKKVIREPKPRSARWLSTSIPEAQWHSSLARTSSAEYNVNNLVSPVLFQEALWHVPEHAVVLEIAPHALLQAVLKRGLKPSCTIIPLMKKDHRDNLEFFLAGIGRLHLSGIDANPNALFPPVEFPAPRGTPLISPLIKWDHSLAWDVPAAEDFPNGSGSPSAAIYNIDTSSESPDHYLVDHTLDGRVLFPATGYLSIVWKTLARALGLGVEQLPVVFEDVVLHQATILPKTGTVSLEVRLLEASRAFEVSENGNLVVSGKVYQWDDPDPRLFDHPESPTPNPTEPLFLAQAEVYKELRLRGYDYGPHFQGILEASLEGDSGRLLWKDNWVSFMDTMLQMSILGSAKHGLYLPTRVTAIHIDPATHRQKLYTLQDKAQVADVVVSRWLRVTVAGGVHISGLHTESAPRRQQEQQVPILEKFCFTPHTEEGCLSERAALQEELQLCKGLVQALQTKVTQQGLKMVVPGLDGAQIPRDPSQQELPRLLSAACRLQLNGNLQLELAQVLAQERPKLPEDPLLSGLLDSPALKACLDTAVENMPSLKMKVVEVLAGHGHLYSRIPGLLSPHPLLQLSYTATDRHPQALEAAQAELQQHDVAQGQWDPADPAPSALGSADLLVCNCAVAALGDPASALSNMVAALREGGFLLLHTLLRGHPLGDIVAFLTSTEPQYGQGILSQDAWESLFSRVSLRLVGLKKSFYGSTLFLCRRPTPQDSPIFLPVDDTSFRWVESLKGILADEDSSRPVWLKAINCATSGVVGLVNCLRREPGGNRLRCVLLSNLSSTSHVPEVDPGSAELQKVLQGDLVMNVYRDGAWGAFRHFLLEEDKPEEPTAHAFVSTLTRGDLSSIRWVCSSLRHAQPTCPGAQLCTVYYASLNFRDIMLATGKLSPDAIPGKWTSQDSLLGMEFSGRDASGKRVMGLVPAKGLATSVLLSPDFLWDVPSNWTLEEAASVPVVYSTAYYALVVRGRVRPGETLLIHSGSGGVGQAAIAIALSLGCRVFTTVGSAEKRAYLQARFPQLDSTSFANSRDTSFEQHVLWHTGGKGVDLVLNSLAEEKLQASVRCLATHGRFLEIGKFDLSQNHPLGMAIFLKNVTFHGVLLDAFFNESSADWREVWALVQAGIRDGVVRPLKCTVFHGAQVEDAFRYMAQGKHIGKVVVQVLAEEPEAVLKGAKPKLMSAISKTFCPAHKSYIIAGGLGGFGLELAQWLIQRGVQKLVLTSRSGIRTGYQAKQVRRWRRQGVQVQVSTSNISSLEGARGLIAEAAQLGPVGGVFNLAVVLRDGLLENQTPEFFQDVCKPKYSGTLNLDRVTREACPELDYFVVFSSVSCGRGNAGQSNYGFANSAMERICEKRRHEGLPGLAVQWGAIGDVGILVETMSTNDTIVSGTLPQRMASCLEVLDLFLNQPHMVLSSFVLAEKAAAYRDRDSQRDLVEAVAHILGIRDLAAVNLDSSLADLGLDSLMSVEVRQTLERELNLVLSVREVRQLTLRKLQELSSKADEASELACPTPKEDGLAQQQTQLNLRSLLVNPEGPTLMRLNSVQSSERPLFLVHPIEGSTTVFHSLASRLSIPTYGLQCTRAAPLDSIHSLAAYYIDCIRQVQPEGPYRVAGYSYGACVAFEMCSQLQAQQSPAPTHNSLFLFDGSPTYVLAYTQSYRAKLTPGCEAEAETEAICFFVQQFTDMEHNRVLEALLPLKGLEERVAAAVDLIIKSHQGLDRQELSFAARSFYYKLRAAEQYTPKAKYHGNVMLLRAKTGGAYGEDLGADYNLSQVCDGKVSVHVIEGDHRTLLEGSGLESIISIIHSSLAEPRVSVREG

[15] = molecular target: T3, Fatty acid synthase; assay: inhibition of human FAS-TE enzyme activity – biochemical, kinetic fluorescence intensity, dose response (AID 624326); type: functional;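 also: rate of fluorescence rise from hydrolysis of a fluorogenic O-methyl fluorescein ester substrate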
[16] = molecular target: Paired box protein Pax-8 (Homo sapiens, UniProt Q06710); assay: PAX8 transcriptional activity inhibition in RMG-I – RMG-I cells, luciferase, cherry-pick, dose response (AID 687027); type: functional, cell-based;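 also: luciferase reporter driven by Pax8 target thyroperoxidase promoter measured by SteadyGlo luminescence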
Chain of Paired box protein Pax-8 (Q06710 whole entry): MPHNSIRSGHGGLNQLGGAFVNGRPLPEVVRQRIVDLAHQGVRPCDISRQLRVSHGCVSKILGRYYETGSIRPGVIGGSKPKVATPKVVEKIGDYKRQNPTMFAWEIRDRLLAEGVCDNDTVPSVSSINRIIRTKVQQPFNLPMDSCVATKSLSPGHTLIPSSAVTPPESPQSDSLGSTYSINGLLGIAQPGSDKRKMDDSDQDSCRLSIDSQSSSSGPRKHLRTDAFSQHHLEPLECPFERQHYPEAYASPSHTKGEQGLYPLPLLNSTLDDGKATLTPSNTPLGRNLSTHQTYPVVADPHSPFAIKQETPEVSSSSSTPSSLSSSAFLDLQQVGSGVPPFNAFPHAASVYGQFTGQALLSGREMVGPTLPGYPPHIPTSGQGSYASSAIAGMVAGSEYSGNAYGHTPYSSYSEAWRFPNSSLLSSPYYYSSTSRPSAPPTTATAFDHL

[17] = system: Vero; assay: cells; type: functional; settings: Chlorocebus sabaeus
[18] = blockers of HIV-1 envelope-mediated cell-cell fusion – cherry-pick, dose response (AID 652057); type: functional, cell-based
[19] = system: INS1; assay: INS-1E survival protection against cytokine death – cell-based, luminescence, retest, dose response (AID 449756); type: functional; settings: Rattus norvegicus;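 also: cell death triggered by IL-1 beta plus TNF-alpha plus IFN-gamma mixture; protective hits raise ATP signal compared with cytokine alone wells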
[20] = P. falciparum Dd2 growth inhibitors, dose response, SYBR Green, cherry-picked samples (AID 1159567); type: functional, cell-based

## CCN(CC)c1ccc(C(=O)NNC(=O)CCl)cc1
[1]
  IC50: 9.84 µM (active)

## CCCn1c(SCC(=O)Nc2ccccc2OC)nnc1-c1ccco1
[2]
  EC50: 21.1 µM (active)
[3]
  EC50: 29.2 µM (active)
[4]
  EC50: > 150 µM (inconclusive)
[5]
  EC50: 50.9 µM (active)

## CC(C)N(C(=O)COC(=O)c1ccc(O)cc1)C(C)C
[1]
  IC50: 18.7 µM (not active)

## Cc1ccc(NC2CCCN(C(=O)c3snnc3C)C2)cc1C (stereo unspecified)
[6]
  AC50: 1.64 µM (active)

## Cc1ccc(N(CCCCN2C(=O)c3ccccc3C2=O)C(=O)c2ccc(Cl)s2)cc1
[1]
  IC50: 2.83 µM (not active)
[7]
  CC50: 24.1 µM (active)

## CC(C)(C)N1C(=O)c2ccc(C(=O)Nc3ccc(O)cc3)cc2C1=O
[6]
  AC50: 3.13 µM (active)
[8]
  IC50: 26.8 µM (active)

## CCC1=Nc2cc(C(=O)NCCN3CCOCC3)ccc2Sc2ccc(Br)cc21
[2]
  EC50: > 150 µM (not active)
[3]
  EC50: > 150 µM (not active)
[4]
  EC50: > 150 µM (not active)
[5]
  EC50: > 150 µM (not active)

## Cc1ccc(NC2CCCN(C(=O)C3CCCC3)C2)cc1C (stereo unspecified)
[6]
  AC50: 4.78 µM (active)

## CCOC(=O)c1[nH]c(C)c(C(=O)N2CCN(c3cccc(Cl)c3)CC2)c1C
[7]
  CC50: 20.9 µM (active)

## Nc1ccccc1Sc1ccc(C(F)(F)F)cc1[N+](=O)[O-]
[1]
  IC50: 2.55 µM (active)

## O=C1CC(c2ccccc2)Sc2nc3ccccc3n21 (stereo unspecified)
[9]
  EC50: 15.4 µM (active)
[10]
  EC50: 15.4 µM (active)

## CC(=O)c1ccc(NC(=O)C(C)OC(=O)/C=C/c2ccco2)cc1 (stereo unspecified)
[11]
  AC50: 9.12 µM (active)
[12]
  AC50: > 70 µM (inactive)
[13]
  AC50: 15.3 µM (active)

## C=C1CC(COc2ccc3c(C)c(Cl)c(=O)oc3c2)(c2ccccc2)OC1=O (stereo unspecified)
[14]
  IC50: 10.5 µM (active)
[15]
  IC50: 12 µM (active)
[11]
  AC50: 4.82 µM (active)
[16]
  AC50: 5.9 µM (active)
[12]
  AC50: 13.2 µM (active)
[13]
  AC50: 9.25 µM (active)

## CCOC(=O)/C(=C/c1ccc(OC(F)F)cc1)C1=Nn2c(nnc2-c2ccc(Cl)cc2)SC1
[17]
  CC50: 7.48 µM (active)

## O=C(CN1C(=O)c2ccc([N+](=O)[O-])cc2C1=O)NCCC1=CCCCC1
[14]
  IC50: 20.9 µM (inactive)
[15]
  IC50: 15.4 µM (active)

## Nc1nc(N)c2cc(CNc3ccc(Cl)c(Cl)c3)ccc2n1
[11]
  AC50: 0.956 µM (active)
[12]
  AC50: 1.21 µM (active)
[13]
  AC50: 3.34 µM (active)

## C/N=C1/c2cc3cc(OC)ccc3n2CCN1Cc1ccccc1
[12]
  AC50: 45.4 µM (active)

## COC(=O)c1cc(C(=O)OCC(=O)NC2CCCCCCC2)cc([N+](=O)[O-])c1
[14]
  IC50: 7.09 µM (active)
[15]
  IC50: 8 µM (active)

## C[C@H]1CN([C@@H](C)CO)S(=O)(=O)c2ccc(-c3cccc(F)c3)cc2O[C@H]1CN(C)S(=O)(=O)c1ccccc1
[18]
  AC50: 25.7 µM (active)

## O=C(C[C@@H]1C[C@H]2c3cc(NC(=O)Nc4ccc(C(F)(F)F)cc4)ccc3O[C@H]2[C@H](CO)O1)NCCc1ccccc1
[16]
  AC50: 15.9 µM (active)

## Cc1ccc(-c2[nH]ncc2/C=N/n2c(COc3ccccc3C)nc3ccccc3c2=O)cc1
[1]
  IC50: 28 µM (not active)
[19]
  AC50: 6.28 µM (active)

## O=[N+]([O-])c1cccc(/C=N\N=C2c3ccccc3-c3ccccc32)c1O
[1]
  IC50: < 0.4 µM (not active)

## O=C(c1ccccn1)N1CC[C@H]2[C@H](CO)Nc3ccc(-c4ccccc4)cc3[C@H]21
[20]
  AC50: 12.4 µM (active)

## C[C@H]1CN([C@@H](C)CO)C(=O)c2ccccc2-c2ccccc2CO[C@H]1CN(C)Cc1cccc(C(F)(F)F)c1
[20]
  AC50: 4.48 µM (active)

## COc1ccc2c3c(n(C)c2c1)[C@@H](CO)N(CC1CCCCC1)CC31CCN(C(=O)CN(C)C)CC1
[20]
  AC50: 5.49 µM (active)
